According to US10919934B2, “Compositions and methods for managing respiratory conditions” (Emory University, priority 2017, dated 2021):
Where a SMILES comes first, the peptide text is derived from it.

Columns and labels:
control AECs [1] = assay: Paracellular flux of tracers, control AECs; format: cell-based, rat; details: 10 mM peptide, 16 h
Description: (§1) The difference between AECs isolated from control- and alcohol-fed animals (alcohol-exposed AECs) was evaluated using two different measures of barrier function: transepithelial resistance (TER) and paracellular flux to soluble tracer molecules. […] Thus, alcohol exposure has a deleterious effect on AEC tight junctions.

claudin-1 = assay: Claudin-1 content, alcohol-exposed AECs; format: cell-based, rat; details: peptide-treated alcohol-exposed AECs
Description: By contrast, control AECs were unaffected by the Ac-EFYDP(SEQ ID NO: 1)-NH2 peptide (FIG. 7A, C, E). A control peptide, Ac-LYQY (SEQ ID NO:35)-NH2, had no effect on AEC barrier function in either control or alcohol-exposed cells. The ability of Ac-EFYDP(SEQ ID NO: 1)-NH2 to improve the barrier function of alcohol-exposed AECs correlated with a decrease in tight-junction spike formation (FIG. 7G) and a specific decrease in total claudin-5 content (FIG. 7I). Claudin-18 and ZO-1 were unaffected (FIG. 7I) as was claudin-1.

claudin-18 = target: T1, claudin-18 (Rattus norvegicus, UniProt Q5I0E5); assay: Immunoblot for claudin-18, alcohol-exposed AECs; format: cell-based; details: peptide-treated alcohol-exposed AECs
T1 construct: endogenous in cells; host or cells: primary alveolar epithelial cells (AECs) from alcohol-fed rats
T1 sequence (Q5I0E5 1-261): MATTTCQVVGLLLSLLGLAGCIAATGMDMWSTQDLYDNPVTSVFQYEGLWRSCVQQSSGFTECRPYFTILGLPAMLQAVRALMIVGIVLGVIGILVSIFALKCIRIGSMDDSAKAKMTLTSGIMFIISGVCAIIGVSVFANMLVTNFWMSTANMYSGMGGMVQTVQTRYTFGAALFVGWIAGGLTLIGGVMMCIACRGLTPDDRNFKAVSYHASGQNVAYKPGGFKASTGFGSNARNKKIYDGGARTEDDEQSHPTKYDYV

control AECs [2] = assay: Transepithelial resistance (TER), control AECs; format: cell-based, rat; details: 10 mM peptide, 16 h
Description: (§2) AECs isolated from control were cultured on Transwell permeable supports for 5 days and then either untreated (un), or incubated with 10 mM control peptide (con; Ac-LYQY(SEQ ID NO:35)-NH2) or a claudin-5 extracellular domain mimetic peptide (C5; Ac-EFYDP(SEQ ID NO:1)-NH2) for 16 h. The cells were examined for barrier function by transepithelial resistance (TER).
as §1

alcohol-exposed AECs [3] = assay: Paracellular flux of tracers, alcohol-exposed AECs; format: cell-based, rat; details: 10 mM peptide, 16 h
Description: as §1

alcohol-exposed AECs [4] = assay: Quantification of % cells with 3 or more tight-junction spikes, alcohol-exposed AECs; format: cell-based, rat; details: for tight junction spikes versus control shRNA: alcohol exposed AECs transduced with lentiviral shRNA
Description: Morphologic disruption of tight junctions was not restricted to claudin-18, as claudin-5 and ZO-1 were also impaired in YFP-claudin-5-transduced AECs. To determine whether ZO-1 disruption was specifically linked to increased claudin-5, the effect of increased YFP-claudin-3 on ZO-1 localization by AECs was examined. […] In a complementary experiment, it was determined whether the ability of alcohol to induce formation of tight-junction spikes was antagonized by depleting claudin-5 using shRNA. […] Thus, claudin-5 was […] to enhance formation of tight-junction spikes.
(§3) To further confirm that spikes were sites of active claudin vesicle formation and fusion, the effects of the dynamin inhibitor Dynasore14 was examined on spike formation by alcohol-exposed AECs.

claudin-5 [5] = target: T2, claudin-5 (Rattus norvegicus, UniProt Q9JKD6); assay: Immunoblot for claudin-5, alcohol-exposed AECs; format: cell-based; details: peptide-treated cells from alcohol-fed rats; P=0.042 versus untreated, P=0.016 versus control
T2 construct: endogenous in cells; host or cells: primary alveolar epithelial cells (AECs) from alcohol-fed rats
T2 sequence (Q9JKD6 1-218): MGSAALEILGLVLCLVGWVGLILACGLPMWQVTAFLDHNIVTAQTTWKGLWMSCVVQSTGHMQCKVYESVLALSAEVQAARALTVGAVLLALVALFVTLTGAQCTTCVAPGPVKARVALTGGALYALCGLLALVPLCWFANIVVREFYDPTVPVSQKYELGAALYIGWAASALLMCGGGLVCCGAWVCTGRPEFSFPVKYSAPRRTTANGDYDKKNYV

alcohol-exposed AECs [6] = assay: Transepithelial resistance (TER), alcohol-exposed AECs; format: cell-based, rat; details: 10 mM peptide, 16 h (overnight); alcohol-exposed AECs on Transwell
Description: as §2, §1

ZO-1 = assay: Immunoblot for ZO-1, alcohol-exposed AECs; format: cell-based, rat; details: peptide-treated alcohol-exposed AECs
control AECs [7] = details: normal AECs treated with inhibitor; cited from earlier work
claudin-5 [8] = details: normal AECs treated with inhibitor; cited from earlier work
alcohol-exposed AECs [9] = assay: Live-cell imaging of YFP-claudin-18 in alcohol-exposed AECs; format: cell-based, rat; details: Dynasore-treated alcohol-exposed AECs
Description: as §3

control AECs [10] = assay: Quantification of % cells with 3 or more tight-junction spikes, control AECs; format: cell-based, rat; details: Dynasore treatment
Description: as §3

claudin-3 and claudin-4 = details: cited from earlier work

CC(=O)NC(CCC(=O)O)C(=O)NC(Cc1ccccc1)C(=O)NC(Cc1ccc(O)cc1)C(=O)NC(CC(=O)O)C(=O)N1CCCC1C(N)=O (stereo not shown) [Ac-EFYDP(SEQ ID NO: 1)-NH2, Ac-EFYDP(SEQ ID NO:1)-NH2] (Ac-EFYDP-NH2; configuration not given here)
paracellular flux of 10 kDa Texas Red dextran (control AECs [1]): unaffected
paracellular flux of calcein (control AECs [1]): unaffected
claudin-1 content (claudin-1): unaffected
claudin-18 content (immunoblot) (claudin-18): unaffected
TER (control AECs [2]): unaffected
paracellular flux of 10 kDa Texas Red dextran (alcohol-exposed AECs [3]): decrease
paracellular flux of calcein (alcohol-exposed AECs [3]): decrease
tight-junction spike formation (alcohol-exposed AECs [4]; peptide-treated alcohol-exposed AECs, P<0.001 versus untreated and control peptide): decrease
total claudin-5 content (immunoblot) (claudin-5 [5]): significant and specific decrease
TER (alcohol-exposed AECs [6]): increase
ZO-1 content (immunoblot) (ZO-1): unaffected

Cc1ccc2nc(NCCN)c3ncc(C)n3c2c1 [BMS-345541]
formation of tight-junction spikes (control AECs [7]): increased
claudin-5 expression (claudin-5 [8]): increased

O=C(NN=Cc1ccc(O)c(O)c1)c1cc2ccccc2cc1O [Dynasore, N′-(3,4-dihydroxybenzylidene)-3-hydroxy-2-naphthohydrazide]
punctate YFP-claudin-18 labelling (alcohol-exposed AECs [9]): increase
spike formation by control cells (control AECs [10]): did not have a significant effect
% cells containing 3 or more tight junction spikes oriented towards the nucleus (alcohol-exposed AECs [4]; 160 μM for 4 h, cells from alcohol fed rats, P=0.002): significantly decreased

Ac-DFYNP-NH2
effectiveness of D-amino acid version relative to corresponding L-amino acid version (claudin-3 and claudin-4): 10-100 fold

Ac-LYQY(SEQ ID NO:35)-NH2 (Ac-LYQY-NH2) [Ac-LYQY (SEQ ID NO:35)-NH2, control peptide, reference compound]
paracellular flux of 10 kDa Texas Red dextran (control AECs [1]): no effect
paracellular flux of calcein (control AECs [1]): no effect
TER (control AECs [2]): no effect
paracellular flux of 10 kDa Texas Red dextran (alcohol-exposed AECs [3]): no effect
paracellular flux of calcein (alcohol-exposed AECs [3]): no effect
TER (alcohol-exposed AECs [6]): no effect

B1: claudin-5 shRNA1: lentiviral short hairpin RNA targeting claudin-5, 616-624, SEQ ID NO: 27/28 (nucleic acid)
chain 1: CCCCCCAACGGCGATTACGACAATTCAAGAGATTGTCGTAATCGCCGTTGGTTTTTGG
chain 2: CCAAAAACCAACGGCGATTACGACAATCTCTTGAATTGTCGTAATCGCCGTTGGGGGG
tight junction spikes versus control shRNA (alcohol-exposed AECs [4]): significantly fewer

B2: shRNA2: lentiviral short hairpin RNA targeting claudin-5, 1594-1612, SEQ ID NO: 29/30 (nucleic acid)
chain 1: CCCCCCACCAAACTGCCGCTAACTTCAAGAGAGTTAGCGGCAGTTTGGTGGTTTTTGG
chain 2: CCAAAAACCACCAAACTGCCGCTAACTCTCTTGAAGTTAGCGGCAGTTTGGTGGGGGG
tight junction spikes versus control shRNA (alcohol-exposed AECs [4]): trend towards decreased spikes
